Assay results reported in PubChem BioAssay (NCI).
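Dose response: 5 concentrations. Exposure: 48 h. Format: 96-well plates. Endpoint: linear interpolation; highest concentration if not reached. TGI: concentration producing complete growth inhibition.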

Key:
Test in all cases: NCI anticancer screen, dose series, 48 h
NCI-H226 lung = test system: NCI-H226 lung
SF-268 CNS = test system: SF-268 CNS
LOX IMVI melanoma = test system: LOX IMVI melanoma
OVCAR-3 ovarian = test system: OVCAR-3 ovarian
SF-539 CNS = test system: SF-539 CNS
OVCAR-4 ovarian = test system: OVCAR-4 ovarian
NCI-H460 lung = test system: NCI-H460 lung
SK-OV-3 ovarian = test system: SK-OV-3 ovarian
DU-145 prostate = test system: DU-145 prostate
SF-295 CNS = test system: SF-295 CNS
786-0 renal = test system: 786-0 renal
EKVX NSCLC = test system: EKVX NSCLC
U251 CNS = test system: U251 CNS
MDA-MB-435 = test system: MDA-MB-435
HOP-62 NSCLC = test system: HOP-62 NSCLC
MALME-3M melanoma = test system: MALME-3M melanoma
KM12 colon = test system: KM12 colon
SK-MEL-28 melanoma = test system: SK-MEL-28 melanoma
SW-620 colon = test system: SW-620 colon
SNB-19 CNS = test system: SNB-19 CNS
MDA-N = test system: MDA-N
HL-60(TB) leukemia = test system: HL-60(TB) leukemia
SK-MEL-5 melanoma = test system: SK-MEL-5 melanoma
HS 578T breast = test system: HS 578T breast
MDA-MB-231 breast = test system: MDA-MB-231 breast
OVCAR-5 ovarian = test system: OVCAR-5 ovarian
SR leukemia = test system: SR leukemia
SNB-75 CNS = test system: SNB-75 CNS
HCT-116 colon = test system: HCT-116 colon
ACHN renal = test system: ACHN renal
HCC-2998 colon = test system: HCC-2998 colon
NCI-H23 lung = test system: NCI-H23 lung
RPMI-8226 leukemia = test system: RPMI-8226 leukemia
SN12C renal = test system: SN12C renal
MOLT-4 leukemia = test system: MOLT-4 leukemia
K-562 leukemia = test system: K-562 leukemia
IGROV1 ovarian = test system: IGROV1 ovarian
HCT-15 colon = test system: HCT-15 colon
T-47D breast = test system: T-47D breast
HT29 colon = test system: HT29 colon
OVCAR-8 ovarian = test system: OVCAR-8 ovarian
PC-3 prostate = test system: PC-3 prostate
HOP-92 NSCLC = test system: HOP-92 NSCLC
CAKI-1 renal = test system: CAKI-1 renal
UACC-62 melanoma = test system: UACC-62 melanoma
NCI-H522 lung = test system: NCI-H522 lung
A498 renal = test system: A498 renal
MCF7 breast = test system: MCF7 breast
UACC-257 melanoma = test system: UACC-257 melanoma
COLO 205 colon = test system: COLO 205 colon
NCI/ADR-RES ovarian = test system: NCI/ADR-RES ovarian
M14 melanoma = test system: M14 melanoma
CCRF-CEM leukemia = test system: CCRF-CEM leukemia
A549 NSCLC = test system: A549 NSCLC
RXF 393 renal = test system: RXF 393 renal
TK-10 renal = test system: TK-10 renal
SK-MEL-2 melanoma = test system: SK-MEL-2 melanoma
BT-549 breast = test system: BT-549 breast
UO-31 renal = test system: UO-31 renal

SMILES: N#Cc1sc2c(c1OC(=O)c1ccc(Cl)cc1)c(=O)n(-c1ccccc1)c(=S)n2-c1ccccc1
- TGI (NCI-H226 lung): 86.7 µM
- TGI (SF-268 CNS): 97.7 µM
- TGI (LOX IMVI melanoma): 37.3 µM
- TGI (OVCAR-3 ovarian): 64.2 µM
- TGI (SF-539 CNS): 44 µM
- TGI (OVCAR-4 ovarian): 76.7 µM
- TGI (NCI-H460 lung): 33.3 µM
- TGI (SK-OV-3 ovarian): 91.4 µM
- TGI (DU-145 prostate): > 100 µM
- TGI (SF-295 CNS): 65.9 µM
- TGI (786-0 renal): 63.6 µM
- TGI (EKVX NSCLC): 49.2 µM
- TGI (U251 CNS): 38.6 µM
- TGI (MDA-MB-435): 52.5 µM
- TGI (HOP-62 NSCLC): 82.7 µM
- TGI (MALME-3M melanoma): 54.4 µM
- TGI (KM12 colon): 32.5 µM
- TGI (SK-MEL-28 melanoma): 47.2 µM
- TGI (SW-620 colon): 46.9 µM
- TGI (SNB-19 CNS): 61.4 µM
- TGI (MDA-N): 55.1 µM
- TGI (HL-60(TB) leukemia): 46.6 µM
- TGI (SK-MEL-5 melanoma): 38.8 µM
- TGI (HS 578T breast): 56.2 µM
- TGI (MDA-MB-231 breast): 97 µM
- TGI (OVCAR-5 ovarian): 68.2 µM
- TGI (SR leukemia): 75.9 µM
- TGI (SNB-75 CNS): > 100 µM
- TGI (HCT-116 colon): 44.3 µM
- TGI (ACHN renal): 86.8 µM
- TGI (HCC-2998 colon): 52.2 µM
- TGI (NCI-H23 lung): 65.8 µM
- TGI (RPMI-8226 leukemia): 45.3 µM
- TGI (SN12C renal): 54 µM
- TGI (MOLT-4 leukemia): 68.7 µM
- TGI (K-562 leukemia): > 100 µM
- TGI (IGROV1 ovarian): 40.5 µM
- TGI (HCT-15 colon): 35.4 µM
- TGI (T-47D breast): > 100 µM
- TGI (HT29 colon): 76.3 µM
- TGI (OVCAR-8 ovarian): 67.1 µM
- TGI (PC-3 prostate): 80.2 µM
- TGI (HOP-92 NSCLC): 66.7 µM
- TGI (CAKI-1 renal): 60.3 µM
- TGI (UACC-62 melanoma): 35.6 µM
- TGI (NCI-H522 lung): 5.29 µM
- TGI (A498 renal): 57.2 µM
- TGI (MCF7 breast): 84.2 µM
- TGI (UACC-257 melanoma): > 100 µM
- TGI (COLO 205 colon): 38.1 µM
- TGI (NCI/ADR-RES ovarian): 73.2 µM
- TGI (M14 melanoma): 50.8 µM
- TGI (CCRF-CEM leukemia): 31.2 µM
- TGI (A549 NSCLC): > 100 µM
- TGI (RXF 393 renal): 50.7 µM
- TGI (TK-10 renal): 88.7 µM

SMILES: O=c1oc2ccc3ccccc3c2cc1-c1nc(-c2ccc([N+](=O)[O-])cc2)n[nH]1
- TGI (SF-268 CNS): 4.56 µM
- TGI (LOX IMVI melanoma): > 100 µM
- TGI (OVCAR-3 ovarian): > 100 µM
- TGI (SF-539 CNS): 39.4 µM
- TGI (OVCAR-4 ovarian): > 100 µM
- TGI (NCI-H460 lung): > 100 µM
- TGI (SK-OV-3 ovarian): 52.7 µM
- TGI (DU-145 prostate): > 100 µM
- TGI (SF-295 CNS): > 100 µM
- TGI (786-0 renal): > 100 µM
- TGI (EKVX NSCLC): > 100 µM
- TGI (U251 CNS): > 100 µM
- TGI (MDA-MB-435): > 100 µM
- TGI (HOP-62 NSCLC): 42 µM
- TGI (MALME-3M melanoma): > 100 µM
- TGI (KM12 colon): > 100 µM
- TGI (SK-MEL-28 melanoma): > 100 µM
- TGI (SW-620 colon): > 100 µM
- TGI (SNB-19 CNS): > 100 µM
- TGI (SK-MEL-2 melanoma): > 100 µM
- TGI (MDA-N): > 100 µM
- TGI (HL-60(TB) leukemia): > 100 µM
- TGI (SK-MEL-5 melanoma): > 100 µM
- TGI (HS 578T breast): 45.6 µM
- TGI (OVCAR-5 ovarian): > 100 µM
- TGI (SR leukemia): > 100 µM
- TGI (HCT-116 colon): > 100 µM
- TGI (ACHN renal): > 100 µM
- TGI (HCC-2998 colon): > 100 µM
- TGI (NCI-H23 lung): 45.8 µM
- TGI (RPMI-8226 leukemia): > 100 µM
- TGI (MOLT-4 leukemia): > 100 µM
- TGI (K-562 leukemia): > 100 µM
- TGI (IGROV1 ovarian): 51.8 µM
- TGI (HCT-15 colon): > 100 µM
- TGI (BT-549 breast): 79.8 µM
- TGI (HT29 colon): > 100 µM
- TGI (OVCAR-8 ovarian): 94.6 µM
- TGI (PC-3 prostate): > 100 µM
- TGI (UO-31 renal): > 100 µM
- TGI (CAKI-1 renal): > 100 µM
- TGI (UACC-62 melanoma): > 100 µM
- TGI (NCI-H522 lung): > 100 µM
- TGI (A498 renal): > 100 µM
- TGI (MCF7 breast): > 100 µM
- TGI (UACC-257 melanoma): > 100 µM
- TGI (COLO 205 colon): > 100 µM
- TGI (NCI/ADR-RES ovarian): > 100 µM
- TGI (M14 melanoma): > 100 µM
- TGI (CCRF-CEM leukemia): > 100 µM
- TGI (A549 NSCLC): > 100 µM

SMILES: CCOC(=O)NC(Nc1ccc(S(=O)(=O)Nc2ccc(OC)nn2)cc1)(C(F)(F)F)C(F)(F)F
- TGI (NCI-H226 lung): 75.9 µM
- TGI (SF-268 CNS): > 100 µM
- TGI (LOX IMVI melanoma): 82 µM
- TGI (OVCAR-3 ovarian): 55.7 µM
- TGI (SF-539 CNS): 36.5 µM
- TGI (OVCAR-4 ovarian): > 100 µM
- TGI (NCI-H460 lung): > 100 µM
- TGI (SK-OV-3 ovarian): > 100 µM
- TGI (DU-145 prostate): > 100 µM
- TGI (SF-295 CNS): > 100 µM
- TGI (786-0 renal): 59 µM
- TGI (EKVX NSCLC): > 100 µM
- TGI (U251 CNS): 41 µM
- TGI (MDA-MB-435): 35.8 µM
- TGI (HOP-62 NSCLC): 59.6 µM
- TGI (MALME-3M melanoma): 40.2 µM
- TGI (KM12 colon): > 100 µM
- TGI (SK-MEL-28 melanoma): 55.6 µM
- TGI (SW-620 colon): > 100 µM
- TGI (SNB-19 CNS): > 100 µM
- TGI (MDA-N): > 100 µM
- TGI (HL-60(TB) leukemia): 58.2 µM
- TGI (SK-MEL-5 melanoma): 32 µM
- TGI (HS 578T breast): > 100 µM
- TGI (MDA-MB-231 breast): 38.1 µM
- TGI (OVCAR-5 ovarian): > 100 µM
- TGI (SR leukemia): 55.8 µM
- TGI (SNB-75 CNS): > 100 µM
- TGI (HCT-116 colon): 44.5 µM
- TGI (ACHN renal): 90.7 µM
- TGI (HCC-2998 colon): > 100 µM
- TGI (NCI-H23 lung): 96.4 µM
- TGI (RPMI-8226 leukemia): 54.8 µM
- TGI (SN12C renal): 83.9 µM
- TGI (MOLT-4 leukemia): 49.5 µM
- TGI (K-562 leukemia): > 100 µM
- TGI (IGROV1 ovarian): 54 µM
- TGI (HCT-15 colon): > 100 µM
- TGI (T-47D breast): > 100 µM
- TGI (HT29 colon): > 100 µM
- TGI (OVCAR-8 ovarian): > 100 µM
- TGI (PC-3 prostate): > 100 µM
- TGI (HOP-92 NSCLC): 73.2 µM
- TGI (UO-31 renal): > 100 µM
- TGI (CAKI-1 renal): > 100 µM
- TGI (UACC-62 melanoma): > 100 µM
- TGI (A498 renal): 54.6 µM
- TGI (MCF7 breast): > 100 µM
- TGI (UACC-257 melanoma): 98.6 µM
- TGI (COLO 205 colon): 58.7 µM
- TGI (NCI/ADR-RES ovarian): 59.9 µM
- TGI (M14 melanoma): 50.4 µM
- TGI (CCRF-CEM leukemia): 70.4 µM
- TGI (A549 NSCLC): > 100 µM
- TGI (RXF 393 renal): 34.8 µM
- TGI (TK-10 renal): 68.8 µM
